Measurements: patent publication US7868135B2, “Compositions of lipopeptide antibiotic derivatives and methods of use thereof” (priority 2003, dated 2011)
Starred links: 1 amine or outer side, 2 acyl side, 3 side chain; linkers in the order of their positions; H or OH if unused. Positions of bridges follow the written chain, without caps; N, C: chain ends. Non-standard residues stand in square brackets, D forms with d. Residues, ends and D or L forms follow the SMILES beside them. Groups on a side chain read outwards from the residue. ξ: configuration not given here. *: point of attachment. X28 = CCCCCCCC(=O)Nc1cc(NC(=O)CCCCCCC)cc(C(=O)*)c1; X34 = CCCCCC(=O)Nc1cc(NC(=O)CCCCC)cc(C(=O)*)c1; ξAbu(βξ-NH2) = CC(N[*:3])C(N[*:1])C(=O)[*:2]; Phac(3-amino) = O=C(Cc1cccc(N[*:1])c1)[*:2]; NH(2-CF3-phenyl) = FC(F)(F)c1ccccc1N*; Pentadecanoyl = CCCCCCCCCCCCCCC(=O)*; ξAsp(βξ-Me) = CC(C(=O)O)C(N)C(=O)O; Tridecanoyl = CCCCCCCCCCCCC(=O)*; X1 = O=C(Cc1ccc(N[*:1])cc1)[*:2]; X5 = CCCCCCCCCCCCn1cc(C(=O)*)nn1; Myristoyl = CCCCCCCCCCCCCC(=O)*; NHtetradecyl = CCCCCCCCCCCCCCN*; ξAbu(3ξ-NH2) = CC(N)C(N)C(=O)O; Undecanoyl = CCCCCCCCCCC(=O)*; Lauroyl = CCCCCCCCCCCC(=O)*; 3Abz = Nc1cccc(C(=O)O)c1; Pip = O=C(O)[CH]1CCCCN1; ξD = NC(CC(=O)O)C(=O)O; ξPip = O=C(O)C1CCCCN1; CO = O=C([*:1])[*:2]; ξV = CC(C)C(N)C(=O)O; ξP = O=C(O)C1CCCN1; OtBu = CC(C)(C)O*

System: Staphylococcus aureus (MSSA)
Settings: 24 h
Outline: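 Broth microdilution MIC per NCCLS M7-A6 with doubling serial dilutions, in cation-adjusted Mueller-Hinton broth supplemented with 0.625 mM calcium.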

Structure (SMILES)	MIC
CCCCCCCCCCCC(=O)Nc1cccc(C(=O)NC(CC(=O)O)C(=O)NC2C(=O)N3CCCCC3C(=O)NC(C(C)C(=O)O)C(=O)NC(CC(=O)O)C(=O)NCC(=O)NC(CC(=O)O)C(=O)NCC(=O)NC(C(C)N)C(=O)NC(C(C)C)C(=O)N3CCCC3C(=O)NC2C)c1 (stereo not drawn) [Compound 296, C12-(M-Aminobenzoyl)-Amphomycin] ({Lauroyl-3Abz}-D[ξAbu(βξ-NH2)][Pip][ξAsp(βξ-Me)]DGDG[ξAbu(3ξ-NH2)]VP; lactam 2-C; configuration not given here)	0.25 mg/L
CCCCCCCCCCCCC(=O)Nc1cccc(C(=O)NC(CC(=O)O)C(=O)NC2C(=O)N3CCCCC3C(=O)NC(C(C)C(=O)O)C(=O)NC(CC(=O)O)C(=O)NCC(=O)NC(CC(=O)O)C(=O)NCC(=O)NC(C(C)N)C(=O)NC(C(C)C)C(=O)N3CCCC3C(=O)NC2C)c1 (stereo not drawn) [Compound 297, C13-(M-Aminobenzoyl)-Amphomycin] ({Tridecanoyl-3Abz}-D[ξAbu(βξ-NH2)][Pip][ξAsp(βξ-Me)]DGDG[ξAbu(3ξ-NH2)]VP; lactam 2-C; configuration not given here)	0.25 mg/L
CCCCCCCCCCCCC(=O)Nc1ccc(CC(=O)NC(CC(=O)O)C(=O)NC2C(=O)N3CCCCC3C(=O)NC(C(C)C(=O)O)C(=O)NC(CC(=O)O)C(=O)NCC(=O)NC(CC(=O)O)C(=O)NCC(=O)NC(C(C)N)C(=O)NC(C(C)C)C(=O)N3CCCC3C(=O)NC2C)cc1 (stereo not drawn) [Compound 300, C13-(p-Apa)-Amphomycin] (Tridecanoyl-[X1]D[ξAbu(βξ-NH2)][Pip][ξAsp(βξ-Me)]DGDG[ξAbu(3ξ-NH2)]VP; lactam 3-C; configuration not given here)	0.225 mg/L
CCCCCCCCCCCCCC(=O)Nc1ccc(CC(=O)NC(CC(=O)O)C(=O)NC2C(=O)N3CCCCC3C(=O)NC(C(C)C(=O)O)C(=O)NC(CC(=O)O)C(=O)NCC(=O)NC(CC(=O)O)C(=O)NCC(=O)NC(C(C)N)C(=O)NC(C(C)C)C(=O)N3CCCC3C(=O)NC2C)cc1 (stereo not drawn) [Compound 301, C14-(p-Apa)-Amphomycin] (Myristoyl-[X1]D[ξAbu(βξ-NH2)][Pip][ξAsp(βξ-Me)]DGDG[ξAbu(3ξ-NH2)]VP; lactam 3-C; configuration not given here)	2 mg/L
CCCCCCCCCCCCCC(=O)Nc1cccc(CC(=O)NC(CC(=O)O)C(=O)NC2C(=O)N3CCCCC3C(=O)NC(C(C)C(=O)O)C(=O)NC(CC(=O)O)C(=O)NCC(=O)NC(CC(=O)O)C(=O)NCC(=O)NC(C(C)N)C(=O)NC(C(C)C)C(=O)N3CCCC3C(=O)NC2C)c1 (stereo not drawn) [Compound 303, C14-(M-Apa)-Amphomycin] (Myristoyl-[Phac(3-amino)]D[ξAbu(βξ-NH2)][Pip][ξAsp(βξ-Me)]DGDG[ξAbu(3ξ-NH2)]VP; lactam 3-C; configuration not given here)	0.5 mg/L
CCCCCCCCCCCNC(=O)NCCCC(=O)NC(CC(=O)O)C(=O)NC1C(=O)N2CCCCC2C(=O)NC(C(C)C(=O)O)C(=O)NC(CC(=O)O)C(=O)NCC(=O)NC(CC(=O)O)C(=O)NCC(=O)NC(C(C)N)C(=O)NC(C(C)C)C(=O)N2CCCC2C(=O)NC1C (stereo not shown) [Compound 304, CH3—(CH2)10—NH—C(═O)-GABA-Amphomycin]	4 mg/L
CCCCCCCC(=O)Nc1cc(NC(=O)CCCCCCC)cc(C(=O)NC(CC(=O)O)C(=O)NC2C(=O)N3CCCCC3C(=O)NC(C(C)C(=O)O)C(=O)NC(CC(=O)O)C(=O)NCC(=O)NC(CC(=O)O)C(=O)NCC(=O)NC(C(C)N)C(=O)NC(C(C)C)C(=O)N3CCCC3C(=O)NC2C)c1 (stereo not drawn) [Compound 305, N,N′-di-C8-(M,M-Diaminobenzoyl)-Amphomycin] (X28-D[ξAbu(βξ-NH2)][Pip][ξAsp(βξ-Me)]DGDG[ξAbu(3ξ-NH2)]VP; lactam 2-C; configuration not given here)	1 mg/L
CCCCCCCCCCCCCCNC(=O)NCC(=O)NC(CC(=O)O)C(=O)NC1C(=O)N2CCCCC2C(=O)NC(C(C)C(=O)O)C(=O)NC(CC(=O)O)C(=O)NCC(=O)NC(CC(=O)O)C(=O)NCC(=O)NC(C(C)N)C(=O)NC(C(C)C)C(=O)N2CCCC2C(=O)NC1C (stereo not drawn) [Compound 307, CH3—(CH2)13—NH—C(═O)-Gly-Amphomycin] ({NHtetradecyl-CO}-GD[ξAbu(βξ-NH2)][Pip][ξAsp(βξ-Me)]DGDG[ξAbu(3ξ-NH2)]VP; lactam 3-C; configuration not given here)	0.5 mg/L
CCCCCCCCCCCCn1cc(C(=O)NC(CC(=O)O)C(=O)NC2C(=O)N3CCCCC3C(=O)NC(C(C)C(=O)O)C(=O)NC(CC(=O)O)C(=O)NCC(=O)NC(CC(=O)O)C(=O)NCC(=O)NC(C(C)N)C(=O)NC(C(C)C)C(=O)N3CCCC3C(=O)NC2C)nn1 (stereo not drawn) [Compound 309, 1-Dodecyl-1H-(1,2,3)-Triazole-4-Carboxyl-Amphomycin] (X5-D[ξAbu(βξ-NH2)][Pip][ξAsp(βξ-Me)]DGDG[ξAbu(3ξ-NH2)]VP; lactam 2-C; configuration not given here)	1 mg/L

Next, values leading:

MIC	Structure (SMILES)
1 mg/L	CCCCCCCCCCCCCCC(=O)Nc1cccc(CC(=O)NC(CC(=O)O)C(=O)NC2C(=O)N3CCCCC3C(=O)NC(C(C)C(=O)O)C(=O)NC(CC(=O)O)C(=O)NCC(=O)NC(CC(=O)O)C(=O)NCC(=O)NC(C(C)N)C(=O)NC(C(C)C)C(=O)N3CCCC3C(=O)NC2C)c1 (stereo not drawn) [Compound 310, C15-(M-Apa)-Amphomycin] (Pentadecanoyl-[Phac(3-amino)]D[ξAbu(βξ-NH2)][Pip][ξAsp(βξ-Me)]DGDG[ξAbu(3ξ-NH2)]VP; lactam 3-C; configuration not given here)
8 mg/L	CCCCCCCCCCCCC(=O)N[C@@H](CC(=O)OC)C(=O)NC(CC(=O)O)C(=O)NC1C(=O)N2CCCCC2C(=O)NC(C(C)C(=O)O)C(=O)NC(CC(=O)O)C(=O)NCC(=O)NC(CC(=O)O)C(=O)NCC(=O)NC(C(C)N)C(=O)NC(C(C)C)C(=O)N2CCCC2C(=O)NC1C (stereo partly drawn) [Compound 311, C13-(Asp-(OMe))-Amphomycin] (Tridecanoyl-D(OMe)[ξD][ξAbu(βξ-NH2)][ξPip][ξAsp(βξ-Me)][ξD]G[ξD]G[ξAbu(3ξ-NH2)][ξV][ξP]; lactam 3-C)
1 mg/L	CCCCCCCCCCCCCCC(=O)Nc1ccc(CC(=O)NC(CC(=O)O)C(=O)NC2C(=O)N3CCCCC3C(=O)NC(C(C)C(=O)O)C(=O)NC(CC(=O)O)C(=O)NCC(=O)NC(CC(=O)O)C(=O)NCC(=O)NC(C(C)N)C(=O)NC(C(C)C)C(=O)N3CCCC3C(=O)NC2C)cc1 (stereo not drawn) [Compound 312, C15-(p-Apa)-Amphomycin] (Pentadecanoyl-[X1]D[ξAbu(βξ-NH2)][Pip][ξAsp(βξ-Me)]DGDG[ξAbu(3ξ-NH2)]VP; lactam 3-C; configuration not given here)
0.5 to 1 mg/L	CCCCCCCCCCCCCCC(=O)N[C@@H](CC(=O)OC)C(=O)NC(CC(=O)O)C(=O)NC1C(=O)N2CCCCC2C(=O)NC(C(C)C(=O)O)C(=O)NC(CC(=O)O)C(=O)NCC(=O)NC(CC(=O)O)C(=O)NCC(=O)NC(C(C)N)C(=O)NC(C(C)C)C(=O)N2CCCC2C(=O)NC1C (stereo partly drawn) [Compound 313, C15-(Asp-(OME))-Amphomycin] (Pentadecanoyl-D(OMe)[ξD][ξAbu(βξ-NH2)][ξPip][ξAsp(βξ-Me)][ξD]G[ξD]G[ξAbu(3ξ-NH2)][ξV][ξP]; lactam 3-C)
8 mg/L	CCCCCCCCCCC(=O)N[C@@H](CC(=O)OC(C)(C)C)C(=O)NC(CC(=O)O)C(=O)NC1C(=O)N2CCCCC2C(=O)NC(C(C)C(=O)O)C(=O)NC(CC(=O)O)C(=O)NCC(=O)NC(CC(=O)O)C(=O)NCC(=O)NC(C(C)N)C(=O)NC(C(C)C)C(=O)N2CCCC2C(=O)NC1C (stereo partly drawn) [Compound 314, C11-(Asp-(OtBu))-Amphomycin] (Undecanoyl-D(OtBu)[ξD][ξAbu(βξ-NH2)][ξPip][ξAsp(βξ-Me)][ξD]G[ξD]G[ξAbu(3ξ-NH2)][ξV][ξP]; lactam 3-C)
1 mg/L	CCCCCCCCCCCCC(=O)N[C@@H](CC(=O)OC(C)(C)C)C(=O)NC(CC(=O)O)C(=O)NC1C(=O)N2CCCCC2C(=O)NC(C(C)C(=O)O)C(=O)NC(CC(=O)O)C(=O)NCC(=O)NC(CC(=O)O)C(=O)NCC(=O)NC(C(C)N)C(=O)NC(C(C)C)C(=O)N2CCCC2C(=O)NC1C (stereo partly drawn) [Compound 315, C13-(Asp-(OtBu))-Amphomycin] (Tridecanoyl-D(OtBu)[ξD][ξAbu(βξ-NH2)][ξPip][ξAsp(βξ-Me)][ξD]G[ξD]G[ξAbu(3ξ-NH2)][ξV][ξP]; lactam 3-C)
>64 mg/L	CCCCCCCCCCC(=O)N[C@@H](CC(=O)OC)C(=O)NC(CC(=O)O)C(=O)NC1C(=O)N2CCCCC2C(=O)NC(C(C)C(=O)O)C(=O)NC(CC(=O)O)C(=O)NCC(=O)NC(CC(=O)O)C(=O)NCC(=O)NC(C(C)N)C(=O)NC(C(C)C)C(=O)N2CCCC2C(=O)NC1C (stereo partly drawn) [Compound 316, C11-(Asp-(OMe))-Amphomycin] (Undecanoyl-D(OMe)[ξD][ξAbu(βξ-NH2)][ξPip][ξAsp(βξ-Me)][ξD]G[ξD]G[ξAbu(3ξ-NH2)][ξV][ξP]; lactam 3-C)
1 mg/L	CCCCCCCCCCCCCCC(=O)N[C@H](CC(=O)OC)C(=O)NC(CC(=O)O)C(=O)NC1C(=O)N2CCCCC2C(=O)NC(C(C)C(=O)O)C(=O)NC(CC(=O)O)C(=O)NCC(=O)NC(CC(=O)O)C(=O)NCC(=O)NC(C(C)N)C(=O)NC(C(C)C)C(=O)N2CCCC2C(=O)NC1C (stereo partly drawn) [Compound 317, C15-(Asp-(Ome))-Amphomycin] (Pentadecanoyl-[dD](OMe)[ξD][ξAbu(βξ-NH2)][ξPip][ξAsp(βξ-Me)][ξD]G[ξD]G[ξAbu(3ξ-NH2)][ξV][ξP]; lactam 3-C)
64 mg/L	CCCCCCCCCCCCCCC(=O)NC(CC(=O)O)C(=O)NC1C(=O)N2CCCCC2C(=O)NC(C(C)C(=O)O)C(=O)NC(CC(=O)O)C(=O)NCC(=O)NC(CC(=O)O)C(=O)NCC(=O)NC(C(C)NC(=O)Nc2ccccc2C(F)(F)F)C(=O)NC(C(C)C)C(=O)N2CCCC2C(=O)NC1C (stereo not drawn) [Compound 318, C15-Amphomycin-9-C(═O)—NH—(O—CF3-Phenyl)] (Pentadecanoyl-D[ξAbu(βξ-NH2)][Pip][ξAsp(βξ-Me)]DGDG[ξAbu(βξ-NH2)]([CO-NH(2-CF3-phenyl)])VP; lactam 2-C; configuration not given here)
64 mg/L	CCCCCC(=O)Nc1cc(NC(=O)CCCCC)cc(C(=O)NC(CC(=O)O)C(=O)NC2C(=O)N3CCCCC3C(=O)NC(C(C)C(=O)O)C(=O)NC(CC(=O)O)C(=O)NCC(=O)NC(CC(=O)O)C(=O)NCC(=O)NC(C(C)N)C(=O)NC(C(C)C)C(=O)N3CCCC3C(=O)NC2C)c1 (stereo not drawn) [Compound 319, N,N′-di-C6-(M,M-Diaminobenzoyl)-Amphomycin] (X34-D[ξAbu(βξ-NH2)][Pip][ξAsp(βξ-Me)]DGDG[ξAbu(3ξ-NH2)]VP; lactam 2-C; configuration not given here)
